Measurements taken from PubChem BioAssay (NCI).
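Interpolation was linear, between the two tested concentrations surrounding the appropriate level; five concentrations were tested over 48 hours in 96-well plates. The concentration for 50% growth inhibition is given as GI50. Definition used: TGI = concentration required for complete inhibition of growth.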

Experiments:
Assay in all cases: inhibition of tumour cell growth, NCI panel, 48 h
SK-OV-3 ovarian = test system: SK-OV-3 ovarian
UO-31 renal = test system: UO-31 renal
786-0 renal = test system: 786-0 renal
T-47D breast = test system: T-47D breast
SF-268 CNS = test system: SF-268 CNS
U251 CNS = test system: U251 CNS
MCF7 breast = test system: MCF7 breast
RXF 393 renal = test system: RXF 393 renal
IGROV1 ovarian = test system: IGROV1 ovarian
SK-MEL-5 melanoma = test system: SK-MEL-5 melanoma
OVCAR-5 ovarian = test system: OVCAR-5 ovarian
TK-10 renal = test system: TK-10 renal
COLO 205 colon = test system: COLO 205 colon
HCC-2998 colon = test system: HCC-2998 colon
SNB-19 CNS = test system: SNB-19 CNS
CCRF-CEM leukemia = test system: CCRF-CEM leukemia
A549 NSCLC = test system: A549 NSCLC
NCI-H226 lung = test system: NCI-H226 lung
HS 578T breast = test system: HS 578T breast
SR leukemia = test system: SR leukemia
NCI-H522 lung = test system: NCI-H522 lung
HOP-62 NSCLC = test system: HOP-62 NSCLC
M14 melanoma = test system: M14 melanoma
BT-549 breast = test system: BT-549 breast
RPMI-8226 leukemia = test system: RPMI-8226 leukemia
K-562 leukemia = test system: K-562 leukemia
OVCAR-4 ovarian = test system: OVCAR-4 ovarian
PC-3 prostate = test system: PC-3 prostate

Cc1ccccc1N1CCN(C2=C(Cl)C(=O)c3ncccc3C2=O)CC1
TGI (SK-OV-3 ovarian): > 100 µM
GI50 (UO-31 renal): 1.49 µM
TGI (UO-31 renal): 2.86 µM
GI50 (786-0 renal): 1.71 µM
TGI (786-0 renal): 3.09 µM
GI50 (T-47D breast): 1.9 µM
TGI (T-47D breast): 4.35 µM
GI50 (SF-268 CNS): 23.7 µM
TGI (SF-268 CNS): > 100 µM
GI50 (U251 CNS): 6 µM
TGI (U251 CNS): 25.6 µM
GI50 (MCF7 breast): 1.46 µM
TGI (MCF7 breast): 3.22 µM
GI50 (RXF 393 renal): 1.74 µM
TGI (RXF 393 renal): 3.17 µM
GI50 (IGROV1 ovarian): 1.97 µM
TGI (IGROV1 ovarian): 4.09 µM
GI50 (SK-MEL-5 melanoma): 4.98 µM
TGI (SK-MEL-5 melanoma): 17.7 µM
GI50 (OVCAR-5 ovarian): 6.89 µM
TGI (OVCAR-5 ovarian): 21.2 µM
GI50 (TK-10 renal): 4.76 µM
TGI (TK-10 renal): > 100 µM
GI50 (COLO 205 colon): 3.14 µM
TGI (COLO 205 colon): 10.8 µM
GI50 (HCC-2998 colon): 3.33 µM
TGI (HCC-2998 colon): 13.8 µM
GI50 (SNB-19 CNS): 30.3 µM
TGI (SNB-19 CNS): > 100 µM
GI50 (CCRF-CEM leukemia): 1.73 µM
TGI (CCRF-CEM leukemia): 5.19 µM
GI50 (A549 NSCLC): 23.5 µM
TGI (A549 NSCLC): > 100 µM
GI50 (NCI-H226 lung): 20.8 µM
TGI (NCI-H226 lung): > 100 µM
GI50 (HS 578T breast): 4.94 µM
TGI (HS 578T breast): 85.3 µM
GI50 (SR leukemia): 1 µM
TGI (SR leukemia): 5 µM
GI50 (NCI-H522 lung): 1.68 µM
TGI (NCI-H522 lung): 3.31 µM
GI50 (HOP-62 NSCLC): 35.1 µM
TGI (HOP-62 NSCLC): > 100 µM
GI50 (M14 melanoma): 2.2 µM
TGI (M14 melanoma): 6.45 µM
GI50 (BT-549 breast): 1.96 µM
TGI (BT-549 breast): 3.41 µM
GI50 (RPMI-8226 leukemia): 2 µM
TGI (RPMI-8226 leukemia): 5.22 µM
GI50 (K-562 leukemia): 1.28 µM
TGI (K-562 leukemia): 4.08 µM
GI50 (OVCAR-4 ovarian): 1.75 µM
TGI (OVCAR-4 ovarian): 3.23 µM
GI50 (PC-3 prostate): 1.63 µM
TGI (PC-3 prostate): 3.7 µM
